According to the supplement of paper PMC10331698:
± gives the standard deviation of the averaged measurements.

Key:
Test in all cases: level (log10 ratio to DMSO vehicle control); higher = higher biomarker level / cell amount than vehicle control
Settings in all cases: in DMSO
Hexafluoroglutaric acid = compound: O=C(O)C(F)(F)C(F)(F)C(F)(F)C(=O)O [Hexafluoroglutaric acid]
Method: (§1)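 BioMAP Diversity Plus panel of 12 human primary cell co-culture systems (3C, 4H, LPS, SAg, BT, BF4T, BE3C, CASM3C, HDF3CGF, KF3CT, MyoF, Mphg). Compounds were added 1 h before stimulation and left for 24 h (MyoF 48 h; BT 72 h for soluble read-outs or 6 d for IgG). Biomarkers were read by ELISA, cytotoxicity by SRB, PBMC viability and proliferation by Alamar Blue. Each well value was divided by the mean of 8 DMSO control wells on the same plate and log10 transformed; duplicate blinded samples were tested at 4 concentrations.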

[1] = compound: C=CC(=O)OCCC(F)(F)C(F)(F)C(F)(F)C(F)(F)F [2-(Perfluorobutyl)ethyl acrylate]
Method: as §1

1H,1H-Heptafluorobutanol = compound: OCC(F)(F)C(F)(F)C(F)(F)F [1H,1H-Heptafluorobutanol]
Method: as §1

[2] = compound: O=C(O)CCC(F)(F)C(F)(F)C(F)(F)C(F)(F)C(F)(F)F [2H,2H,3H,3H-Perfluorooctanoic acid]
Method: as §1

[3] = compound: O=C(O)C(F)(F)C(F)(F)C(F)(F)C(F)(F)C(F)(F)C(F)(F)C(F)(F)C(F)(F)Cl [9-Chloro-perfluorononanoic acid]
Method: as §1

[4] = compound: CC(C)(C)C(=O)CC(=O)C(F)(F)C(F)(F)C(F)(F)F [(Heptafluorobutanoyl)pivaloylmethane]
Method: as §1

Perfluorooctanamide = compound: NC(=O)C(F)(F)C(F)(F)C(F)(F)C(F)(F)C(F)(F)C(F)(F)C(F)(F)F [Perfluorooctanamide]
Method: as §1

Q: Which “level (log10)” value (Hexafluoroglutaric acid; 6700 nM) does the source give for CASM3C:LDLR here?
A: Its value is -0.009 ± 0.0099.

Q: What about the “level (log10)” value (Hexafluoroglutaric acid; 20000 nM) of the same test system?
A: Its value is -0.0175 ± 0.026.

Q: And the “level (log10)” value (Hexafluoroglutaric acid; 60000 nM)?
A: The value was -0.015 ± 0.014.

Q: What about the “level (log10)” value ([1]; 6700 nM) of the same test system?
A: Its value is -0.013 ± 0.0099.

Q: What about the “level (log10)” value ([1]; 20000 nM) of the same test system?
A: The value was -0.0105 ± 0.0021.

Q: And the “level (log10)” value ([1]; 60000 nM)?
A: The value was 0.01 ± 0.042.

Q: What about the “level (log10)” value (1H,1H-Heptafluorobutanol; 6700 nM) of the same test system?
A: Its value is -0.0025 ± 0.0035.

Q: And the “level (log10)” value (1H,1H-Heptafluorobutanol; 20000 nM)?
A: Its value is 0.012 ± 0.011.

Q: What about the “level (log10)” value (1H,1H-Heptafluorobutanol; 60000 nM) of the same test system?
A: Its value is 0.006 ± 0.03.

Q: What about the “level (log10)” value ([2]; 6700 nM) of the same test system?
A: Its value is 0.0005 ± 0.0021.

Q: And the “level (log10)” value ([2]; 20000 nM)?
A: Its value is -0.001 ± 0.018.

Q: And the “level (log10)” value ([2]; 60000 nM)?
A: Its value is 0.0095 ± 0.047.

Q: And the “level (log10)” value ([3]; 6700 nM)?
A: Its value is -0.011 ± 0.013.

Q: And the “level (log10)” value ([3]; 20000 nM)?
A: The value was -0.0065 ± 0.0021.

Q: What about the “level (log10)” value ([4]; 6700 nM) of the same test system?
A: Its value is -0.004 ± 0.017.

Q: What about the “level (log10)” value ([4]; 20000 nM) of the same test system?
A: The value was -0.0085 ± 0.0035.

Q: What about the “level (log10)” value ([4]; 60000 nM) of the same test system?
A: The value was -0.0075 ± 0.018.

Q: And the “level (log10)” value (Perfluorooctanamide; 6700 nM)?
A: Its value is -0.0175 ± 0.0035.

Q: And the “level (log10)” value (Perfluorooctanamide; 20000 nM)?
A: The value was 0.0135 ± 0.026.

Q: What about the “level (log10)” value (Perfluorooctanamide; 60000 nM) of the same test system?
A: Its value is 0.031 ± 0.027.

Q: What does the source list for 3C:CD142/Tissue Factor?
A: level (log10) (Hexafluoroglutaric acid; 6700 nM): -0.006 ± 0.02; level (log10) (Hexafluoroglutaric acid; 20000 nM): -0.004 ± 0.028; level (log10) (Hexafluoroglutaric acid; 60000 nM): -0.0685 ± 0.005; level (log10) ([1]; 6700 nM): -0.0105 ± 0.043; level (log10) ([1]; 20000 nM): -0.127 ± 0.034; level (log10) ([1]; 60000 nM): -0.381 ± 0.016; level (log10) (1H,1H-Heptafluorobutanol; 6700 nM): -0.0065 ± 0.021; level (log10) (1H,1H-Heptafluorobutanol; 20000 nM): 0.0105 ± 0.015; level (log10) (1H,1H-Heptafluorobutanol; 60000 nM): 0.026 ± 0.025; level (log10) ([2]; 6700 nM): 0.009 ± 0.0028; level (log10) ([2]; 20000 nM): 0.018 ± 0.0071; level (log10) ([2]; 60000 nM): 0.022 ± 0.0085; level (log10) ([3]; 6700 nM): -0.008 ± 0.057; level (log10) ([3]; 20000 nM): 0.025 ± 0.0057; level (log10) ([4]; 6700 nM): -0.0205 ± 0.015; level (log10) ([4]; 20000 nM): -0.0235 ± 0.005; level (log10) ([4]; 60000 nM): -0.053 ± 0.014; level (log10) (Perfluorooctanamide; 6700 nM): 0.029 ± 0.033; level (log10) (Perfluorooctanamide; 20000 nM): 0.009 ± 0.013; level (log10) (Perfluorooctanamide; 60000 nM): 0.0245 ± 0.06

Q: With BE3C:MMP-1 as the test system, how does the “level (log10)” value (Hexafluoroglutaric acid; 6700 nM) read?
A: Its value is -0.011 ± 0.0099.

Q: And the “level (log10)” value (Hexafluoroglutaric acid; 20000 nM)?
A: The value was -0.023 ± 0.016.

Q: What about the “level (log10)” value (Hexafluoroglutaric acid; 60000 nM) of the same test system?
A: The value was 0.007 ± 0.058.

Q: What about the “level (log10)” value ([1]; 6700 nM) of the same test system?
A: Its value is 0.0175 ± 0.028.

Q: What about the “level (log10)” value ([1]; 20000 nM) of the same test system?
A: Its value is -0.007 ± 0.016.

Q: What about the “level (log10)” value ([1]; 60000 nM) of the same test system?
A: Its value is 0.0705 ± 0.022.

Q: And the “level (log10)” value (1H,1H-Heptafluorobutanol; 6700 nM)?
A: The value was 0.0035 ± 0.0078.

Q: And the “level (log10)” value (1H,1H-Heptafluorobutanol; 20000 nM)?
A: The value was -0.015 ± 0.02.

Q: And the “level (log10)” value (1H,1H-Heptafluorobutanol; 60000 nM)?
A: Its value is 0.0025 ± 0.028.

Q: And the “level (log10)” value ([2]; 6700 nM)?
A: The value was 0.019 ± 0.013.

Q: What about the “level (log10)” value ([2]; 20000 nM) of the same test system?
A: Its value is 0.0225 ± 0.028.

Q: What about the “level (log10)” value ([2]; 60000 nM) of the same test system?
A: Its value is 0.072 ± 0.048.

Q: And the “level (log10)” value ([3]; 6700 nM)?
A: The value was 0.083 ± 0.024.

Q: What about the “level (log10)” value ([3]; 20000 nM) of the same test system?
A: Its value is 0.277 ± 0.0064.

Q: And the “level (log10)” value ([4]; 6700 nM)?
A: Its value is -0.0025 ± 0.0035.

Q: And the “level (log10)” value ([4]; 20000 nM)?
A: The value was -0.019 ± 0.013.

Q: What about the “level (log10)” value ([4]; 60000 nM) of the same test system?
A: The value was 0.0095 ± 0.033.

Q: What about the “level (log10)” value (Perfluorooctanamide; 6700 nM) of the same test system?
A: The value was 0.0075 ± 0.0078.

Q: What about the “level (log10)” value (Perfluorooctanamide; 20000 nM) of the same test system?
A: The value was 0.014 ± 0.0071.

Q: What about the “level (log10)” value (Perfluorooctanamide; 60000 nM) of the same test system?
A: The value was 0.022 ± 0.018.

Q: Which results are given for HDF3CGF:CXCL9/MIG?
A: level (log10) (Hexafluoroglutaric acid; 6700 nM): -0.013 ± 0.014; level (log10) (Hexafluoroglutaric acid; 20000 nM): -0.025 ± 0.011; level (log10) (Hexafluoroglutaric acid; 60000 nM): -0.005 ± 0.013; level (log10) ([1]; 6700 nM): -0.0335 ± 0.019; level (log10) ([1]; 20000 nM): -0.176 ± 0.064; level (log10) ([1]; 60000 nM): -0.498 ± 0.071; level (log10) (1H,1H-Heptafluorobutanol; 6700 nM): 0.0035 ± 0.028; level (log10) (1H,1H-Heptafluorobutanol; 20000 nM): -0.0005 ± 0.022; level (log10) (1H,1H-Heptafluorobutanol; 60000 nM): -0.008 ± 0.033; level (log10) ([2]; 6700 nM): -0.01 ± 0.047; level (log10) ([2]; 20000 nM): -0.019 ± 0.047; level (log10) ([2]; 60000 nM): -0.036 ± 0.044; level (log10) ([3]; 6700 nM): -0.047 ± 0.02; level (log10) ([3]; 20000 nM): -0.142 ± 0.04; level (log10) ([4]; 6700 nM): 0.0025 ± 0.012; level (log10) ([4]; 20000 nM): 0 ± 0.02; level (log10) ([4]; 60000 nM): -0.025 ± 0.033; level (log10) (Perfluorooctanamide; 6700 nM): -0.014 ± 0.013; level (log10) (Perfluorooctanamide; 20000 nM): 0.0115 ± 0.012; level (log10) (Perfluorooctanamide; 60000 nM): 0.0415 ± 0.0078

Q: What does the source list for lMphg:CCL2/MCP-1?
A: level (log10) (Hexafluoroglutaric acid; 6700 nM): -0.046 ± 0.052; level (log10) (Hexafluoroglutaric acid; 20000 nM): -0.0305 ± 0.037; level (log10) (Hexafluoroglutaric acid; 60000 nM): -0.0235 ± 0.011; level (log10) ([1]; 6700 nM): -0.0335 ± 0.0078; level (log10) ([1]; 20000 nM): -0.0445 ± 0.0078; level (log10) ([1]; 60000 nM): -0.012 ± 0.04; level (log10) (1H,1H-Heptafluorobutanol; 6700 nM): -0.01 ± 0.0042; level (log10) (1H,1H-Heptafluorobutanol; 20000 nM): -0.0075 ± 0.015; level (log10) (1H,1H-Heptafluorobutanol; 60000 nM): -0.0295 ± 0.012; level (log10) ([2]; 6700 nM): 0.007 ± 0.016; level (log10) ([2]; 20000 nM): -0.0115 ± 0.005; level (log10) ([2]; 60000 nM): -0.01; level (log10) ([3]; 6700 nM): 0.008 ± 0.047; level (log10) ([3]; 20000 nM): 0.0025 ± 0.015; level (log10) ([4]; 6700 nM): -0.0135 ± 0.025; level (log10) ([4]; 20000 nM): -0.018 ± 0.0071; level (log10) ([4]; 60000 nM): -0.0255 ± 0.021; level (log10) (Perfluorooctanamide; 6700 nM): 0.012 ± 0.013; level (log10) (Perfluorooctanamide; 20000 nM): 0.001 ± 0.025; level (log10) (Perfluorooctanamide; 60000 nM): -0.0235 ± 0.035
